The source of these data is ChEMBL document CHEMBL1148480, “Structure-activity studies of orexin a and orexin B at the human orexin 1 and orexin 2 receptors led to orexin 2 receptor selective and orexin 1 receptor preferring ligands” (J Med Chem, 2004).

SMILES strings stand for the structures. pEC50: −log10 of the molar value. Residues, ends and D or L forms follow the SMILES beside them.

One experiment addresses T1, Orexin receptor type 2 (Homo sapiens, UniProt O43614).
T1 sequence (O43614 whole entry): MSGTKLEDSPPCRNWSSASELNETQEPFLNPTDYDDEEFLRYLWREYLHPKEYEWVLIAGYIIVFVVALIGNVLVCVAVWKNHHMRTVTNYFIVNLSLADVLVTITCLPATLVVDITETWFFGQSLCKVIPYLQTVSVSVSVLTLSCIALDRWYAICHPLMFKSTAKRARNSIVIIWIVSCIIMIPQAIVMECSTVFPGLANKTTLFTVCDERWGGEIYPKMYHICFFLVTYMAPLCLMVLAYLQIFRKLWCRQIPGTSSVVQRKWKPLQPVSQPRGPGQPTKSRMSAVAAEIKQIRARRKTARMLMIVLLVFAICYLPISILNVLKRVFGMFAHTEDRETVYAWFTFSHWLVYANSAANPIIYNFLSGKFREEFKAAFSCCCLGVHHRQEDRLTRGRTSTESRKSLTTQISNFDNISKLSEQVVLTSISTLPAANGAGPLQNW
Put plainly: Effective agonist concentration to the human Orexin receptor type 2 was determined using the Xlfit program. Type of experiment: functional.

Experiment [1] has as its target T2, Orexin/Hypocretin receptor type 1 (Homo sapiens, UniProt O43613).
T2 sequence (O43613 whole entry): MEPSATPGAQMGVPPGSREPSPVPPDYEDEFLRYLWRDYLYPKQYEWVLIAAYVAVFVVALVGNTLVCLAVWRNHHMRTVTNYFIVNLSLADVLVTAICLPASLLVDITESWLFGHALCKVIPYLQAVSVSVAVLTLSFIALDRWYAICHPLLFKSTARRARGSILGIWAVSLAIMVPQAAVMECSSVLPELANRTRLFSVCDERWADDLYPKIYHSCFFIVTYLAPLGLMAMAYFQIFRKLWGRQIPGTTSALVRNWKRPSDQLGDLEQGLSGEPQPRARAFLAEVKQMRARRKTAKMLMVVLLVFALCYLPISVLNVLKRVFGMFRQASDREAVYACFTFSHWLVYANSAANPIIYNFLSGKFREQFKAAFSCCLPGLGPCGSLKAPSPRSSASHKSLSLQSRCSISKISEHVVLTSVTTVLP
As to the kind of experiment: Effective agonist concentration to human orexin receptor type 1 determined using the Xlfit program. The format is functional.

Usually pEC50 stands for the EC50 on a negative log10 scale, so that one unit is a factor of ten. The low end stands for a high EC50, the high end for a low EC50. Regarding `CC[C@H](C)[C@H](NC(=O)CNC(=O)[C@H](C)NC(=O)[C@H](C)NC(=O)[C@H](Cc1cnc[nH]1)NC(=O)[C@H](CC(N)=O)NC(=O)CNC(=O)[C@H](CO)NC(=O)[C@H](C)NC(=O)[C@H](CCC(N)=O)NC(=O)[C@H](CC(C)C)NC(=O)[C@H](CC(C)C)NC(=O)[C@H](CCCNC(=N)N)NC(=O)[C@H](CCC(N)=O)NC(=O)[C@H](CC(C)C)NC(=O)[C@H](CCCNC(=N)N)NC(=O)CNC(=O)[C@H](CCC(N)=O)NC(=O)[C@H](CC(C)C)NC(=O)CN)C(=O)N[C@@H](CC(C)C)C(=O)N1CCC[C@H]1C(=O)N[C@@H](CCSC)C(=O)O` (H-GLQGRLQRLLQASGNHAAGILPM-OH), the figures for the pEC50 (at Orexin receptor type 2; in experiment [1]) were 5.57 and below 3.00, respectively.
In the same order, the values of `CC(C)C[C@H](NC(=O)CNC(=O)[C@@H]1CCCN1C(=O)[C@@H]1CCCN1C(=O)CNC(=O)[C@H](CO)NC(=O)[C@@H](N)CCCNC(=N)N)C(=O)N[C@@H](CCC(N)=O)C(=O)NCC(=O)N[C@@H](CCCNC(=N)N)C(=O)N[C@@H](CC(C)C)C(=O)N[C@@H](CCC(N)=O)C(=O)N[C@@H](CCCNC(=N)N)C(=O)N[C@@H](CC(C)C)C(=O)N[C@@H](CC(C)C)C(=O)N[C@@H](CCC(N)=O)C(=O)N[C@@H](C)C(=O)N[C@@H](CO)C(=O)NCC(=O)N[C@@H](CC(N)=O)C(=O)N[C@@H](Cc1cnc[nH]1)C(=O)O` (H-RSGPPGLQGRLQRLLQASGNH-OH) are below 3.00 and below 3.00.
As to `CC(C)C[C@H](NC(=O)CNC(=O)[C@@H]1CCCN1C(=O)[C@@H]1CCCN1C(=O)CNC(=O)[C@H](CO)NC(=O)[C@@H](N)CCCN=C(N)N)C(=O)N[C@@H](CCC(N)=O)C(=O)NCC(=O)N[C@@H](CCCN=C(N)N)C(=O)N[C@@H](CC(C)C)C(=O)N[C@@H](CCC(N)=O)C(=O)N[C@@H](CCCN=C(N)N)C(=O)O` (H-RSGPPGLQGRLQR-OH), the pEC50 (on Orexin receptor type 2; in experiment [1]) was below 3.00 in each case.
As for `CC(C)C[C@H](NC(=O)[C@@H]1CCCN1C(=O)[C@@H]1CCC(=O)N1)C(=O)N1CCC[C@H]1C(=O)N[C@@H](CC(=O)O)C(=O)N[C@@H](CS)C(=O)N[C@@H](CS)C(=O)N[C@@H](CCCN=C(N)N)C(=O)N[C@@H](CCC(N)=O)C(=O)N[C@@H](CCCCN)C(=O)N[C@H](C(=O)O)[C@@H](C)O`, the pEC50 (at Orexin receptor type 2; in experiment [1]) was below 3.00 in each case.
`CC[C@H](C)[C@H](NC(=O)CNC(=O)[C@H](C)NC(=O)[C@H](C)NC(=O)[C@H](Cc1cnc[nH]1)NC(=O)[C@H](CC(N)=O)NC(=O)CNC(=O)[C@H](C)NC(=O)CNC(=O)[C@H](Cc1cnc[nH]1)NC(=O)[C@H](CC(C)C)NC(=O)[C@H](CC(C)C)NC(=O)[C@H](CCC(=O)O)NC(=O)[C@H](Cc1ccc(O)cc1)NC(=O)[C@H](CC(C)C)NC(=O)[C@H](CCCNC(=N)N)NC(=O)[C@H](CSSC[C@H](NC(=O)[C@@H](N)CO)C(=O)N[C@@H](CCCNC(=N)N)C(=O)N[C@@H](CC(C)C)C(=O)N[C@@H](Cc1ccc(O)cc1)C(=O)N[C@@H](CCC(=O)O)C(=O)N[C@@H](CC(C)C)C(=O)N[C@@H](CC(C)C)C(=O)N[C@@H](Cc1cnc[nH]1)C(=O)NCC(=O)N[C@@H](C)C(=O)NCC(=O)N[C@@H](CC(N)=O)C(=O)N[C@@H](Cc1cnc[nH]1)C(=O)N[C@@H](C)C(=O)N[C@@H](C)C(=O)NCC(=O)N[C@H](C(=O)N[C@@H](CC(C)C)C(=O)N[C@H](C(=O)N[C@@H](CC(C)C)C(=O)O)[C@@H](C)O)[C@@H](C)CC)NC(=O)[C@@H](N)CO)C(=O)N[C@@H](CC(C)C)C(=O)N[C@H](C(=O)N[C@@H](CC(C)C)C(=O)O)[C@@H](C)O`: the pEC50 on Orexin receptor type 2 is 6.62; in experiment [1], 6.16.
In the same order, the values of `CC[C@H](C)[C@H](NC(=O)CNC(=O)[C@@H]1CCCN1C(=O)[C@H](C)NC(=O)[C@H](Cc1cnc[nH]1)NC(=O)[C@H](CC(N)=O)NC(=O)CNC(=O)[C@H](CO)NC(=O)[C@H](C)NC(=O)[C@H](CCC(N)=O)NC(=O)[C@H](CC(C)C)NC(=O)[C@H](CC(C)C)NC(=O)[C@H](CCCNC(=N)N)NC(=O)[C@H](CCC(N)=O)NC(=O)[C@H](CC(C)C)NC(=O)[C@H](CCCNC(=N)N)NC(=O)CNC(=O)[C@H](CCC(N)=O)NC(=O)[C@H](CC(C)C)NC(=O)CN)C(=O)N[C@@H](CC(C)C)C(=O)N[C@H](C(=O)N[C@@H](CCSC)C(=O)O)[C@@H](C)O` (H-GLQGRLQRLLQASGNHAPGILTM-OH) are 5.44 and below 3.00.
`CC[C@H](C)[C@H](NC(=O)CNC(=O)[C@H](C)NC(=O)[C@H](C)NC(=O)[C@H](Cc1cnc[nH]1)NC(=O)[C@H](CC(N)=O)NC(=O)CNC(=O)[C@H](C)NC(=O)CNC(=O)[C@H](Cc1cnc[nH]1)NC(=O)[C@H](CC(C)C)NC(=O)[C@H](CC(C)C)NC(=O)[C@H](CCC(=O)O)NC(=O)[C@H](Cc1ccc(O)cc1)NC(=O)[C@H](CC(C)C)NC(=O)[C@H](CCCNC(=N)N)NC(=O)[C@H](CS)NC(=O)[C@@H](N)CO)C(=O)N[C@@H](CC(C)C)C(=O)N[C@H](C(=O)N[C@@H](CC(C)C)C(=O)O)[C@@H](C)O` (H-SCRLYELLHGAGNHAAGILTL-OH): the figures for the pEC50 (on Orexin receptor type 2; in experiment [1]) were 6.35 and 5.99, respectively.
As for `CSCC[C@H](NC(=O)[C@@H](NC(=O)[C@H](CC(C)C)NC(=O)[C@@H]1CCCN1C(=O)CNC(=O)[C@H](C)NC(=O)[C@H](C)NC(=O)[C@H](Cc1cnc[nH]1)NC(=O)[C@H](CC(N)=O)NC(=O)CNC(=O)[C@H](CO)NC(=O)[C@H](C)NC(=O)[C@H](CCC(N)=O)NC(=O)[C@H](CC(C)C)NC(=O)[C@H](CC(C)C)NC(=O)[C@H](CCCNC(=N)N)NC(=O)[C@H](CCC(N)=O)NC(=O)[C@H](CC(C)C)NC(=O)[C@H](CCCNC(=N)N)NC(=O)CNC(=O)[C@H](CCC(N)=O)NC(=O)[C@H](CC(C)C)NC(=O)CN)[C@@H](C)O)C(=O)O` (H-GLQGRLQRLLQASGNHAAGPLTM-OH), the pEC50 (on Orexin receptor type 2; in experiment [1]) was below 3.00 throughout.
Turning to `CC[C@H](C)[C@H](NC(=O)CNC(=O)[C@H](C)NC(=O)[C@H](C)NC(=O)[C@H](Cc1c[nH]cn1)NC(=O)[C@H](CC(N)=O)NC(=O)CNC(=O)[C@H](C)N)C(=O)N[C@@H](CC(C)C)C(=O)N[C@H](C(=O)N[C@@H](CC(C)C)C(=O)O)[C@@H](C)O` (H-AGNHAAGILTL-OH), the pEC50 (at Orexin receptor type 2; in experiment [1]) was below 3.00 each time.
`CC[C@H](C)[C@H](NC(=O)CNC(=O)[C@H](C)NC(=O)[C@H](C)NC(=O)[C@H](Cc1cnc[nH]1)NC(=O)[C@@H](N)CC(N)=O)C(=O)N[C@@H](CC(C)C)C(=O)N[C@H](C(=O)N[C@@H](CC(C)C)C(=O)O)[C@@H](C)O` (H-NHAAGILTL-OH): the pEC50 (at Orexin receptor type 2; in experiment [1]) was below 3.00 throughout.
With `CC[C@H](C)[C@H](NC(=O)CNC(=O)[C@H](C)NC(=O)[C@H](C)NC(=O)[C@H](Cc1cnc[nH]1)NC(=O)[C@H](CC(N)=O)NC(=O)CNC(=O)[C@H](CO)NC(=O)[C@H](C)NC(=O)[C@H](C)NC(=O)[C@H](CC(C)C)NC(=O)[C@H](CC(C)C)NC(=O)[C@H](CCCNC(=N)N)NC(=O)[C@H](CCC(N)=O)NC(=O)[C@H](CC(C)C)NC(=O)[C@H](CCCNC(=N)N)NC(=O)CNC(=O)[C@H](CCC(N)=O)NC(=O)[C@H](CC(C)C)NC(=O)CN)C(=O)N[C@@H](CC(C)C)C(=O)N[C@H](C(=O)N[C@@H](CCSC)C(=O)O)[C@@H](C)O` (H-GLQGRLQRLLAASGNHAAGILTM-OH), the pEC50 is 6.72 at Orexin receptor type 2 and 5.79 in experiment [1].
Take `CC[C@H](C)[C@H](NC(=O)CNC(=O)[C@H](C)NC(=O)[C@@H]1CCCN1C(=O)[C@H](Cc1cnc[nH]1)NC(=O)[C@H](CC(N)=O)NC(=O)CNC(=O)[C@H](CO)NC(=O)[C@H](C)NC(=O)[C@H](CCC(N)=O)NC(=O)[C@H](CC(C)C)NC(=O)[C@H](CC(C)C)NC(=O)[C@H](CCCNC(=N)N)NC(=O)[C@H](CCC(N)=O)NC(=O)[C@H](CC(C)C)NC(=O)[C@H](CCCNC(=N)N)NC(=O)CNC(=O)[C@H](CCC(N)=O)NC(=O)[C@H](CC(C)C)NC(=O)CN)C(=O)N[C@@H](CC(C)C)C(=O)N[C@H](C(=O)N[C@@H](CCSC)C(=O)O)[C@@H](C)O` (H-GLQGRLQRLLQASGNHPAGILTM-OH): the pEC50 at Orexin receptor type 2 is 5.36; in experiment [1], below 3.00.
In the same order, the values of `CC[C@H](C)[C@H](NC(=O)CNC(=O)[C@H](C)NC(=O)[C@H](C)NC(=O)[C@H](Cc1cnc[nH]1)NC(=O)[C@H](CC(N)=O)NC(=O)CNC(=O)[C@H](CO)NC(=O)[C@H](C)NC(=O)[C@H](CCC(N)=O)NC(=O)[C@H](C)NC(=O)[C@H](CC(C)C)NC(=O)[C@H](CCCNC(=N)N)NC(=O)[C@H](CCC(N)=O)NC(=O)[C@H](CC(C)C)NC(=O)[C@H](CCCNC(=N)N)NC(=O)CNC(=O)[C@H](CCC(N)=O)NC(=O)[C@H](CC(C)C)NC(=O)CN)C(=O)N[C@@H](CC(C)C)C(=O)N[C@H](C(=O)N[C@@H](CCSC)C(=O)O)[C@@H](C)O` (H-GLQGRLQRLAQASGNHAAGILTM-OH) are 5.63 and below 3.00.
